Like-named read-outs stand apart in the source and are kept apart here.
How the values were obtained:
[1] = in vivo; details: rat, po
[2] = system: phenylbenzoquinone writhing; assay: Analgesic activity, phenylbenzoquinone method in mouse; format: in vivo, mouse (ddY strain, male); details: for Frequency of writhing, mean ± S.E.: during 10 minutes; for inhibition in vivo at 5 mg/kg / inhibition in vivo at 10 mg/kg / inhibition in vivo at 20 mg/kg / ED50: po; for inhibition in vivo at 5 mg/kg / inhibition in vivo at 10 mg/kg / inhibition in vivo at 20 mg/kg: 10 min, read-out: Inhibition
Procedure: (i) Phenylbenzoquinone method in mouse
The test compound was orally administered to each ddY strain male mouse (weighing 22±2 g; 8 mice per group). […] The frequency of writhing during 10 minutes from 5-minutes after the injection of phenylbenzoquinone was measured and compared with that of a control group to which a 0.5% Tween 80 solution was administered. The percent inhibition was calculated by the following equation: [formula]

[3] = system: Adjuvant arthritis; assay: Adjuvant arthritis; format: in vivo, rat (Sprague-Dawley strain, male); details: 1 mg/kg p.o./day, mean during one week
Procedure: A suspension containing 6 mg/ml of killed and dried Mycobacterium butyricum in liquid paraffin was subcutaneously injected into the subplantar region of the left hind paw of Sprague-Dawley strain male rats (weighing 180 to 200 g) in a proportion of 0.1 ml/rat. After 14 days, the rats having inflammatory paws of similar volumes were selected and the test compound was orally administered to the rats repeatedly at the rate shown in Table 4 during one week and the mean inhibitory percent of swelling during one week was determined.

[4] = system: Carrageenin-induced edema; assay: Carrageenin-induced edema; format: in vivo, rat (Donryu strain, male); details: Rattus norvegicus, po, read-out: Inhibitory percent of swelling
Procedure: (iii) Carrageenin-induced edema
Each of the 6 Donryu strain male rats per group (each weighing about 140 g), which had been fasted overnight, was orally loaded with 4 ml of water and, after 30 minutes, the test compound was orally administered thereto. Thirty minutes thereafter, a 1%(Wt/V) solution of carrageenin in physiological saline was subcutaneously injected into the subplantar region of the left hind paw. At a time interval of one hour, starting from the end of the first hour till the end of the fifth hour after injection of carrageenin, the paw volume was measured by means of a manometer and pressure transducer. By comparison with the percent increase in swelling of the control group of rats to which a 0.5%(V/V) solution of Tween 80 had been administered, the mean inhibitory percent in 5 hours of swelling was calculated by the following equation: [formula]

[5] = system: Vascular permeability; assay: Vascular permeability in mice (Whittle's method); format: in vivo, mouse (ddY strain, male); details: for Inhibition: dye leakage; for ED30: po
Procedure: (i) Vascular permeability in mice (Whittle's method)
The test compound was orally administered to each ddY strain male mouse (weighing each about 20 g). After 20 minutes, 0.1 ml/10 g of a 4%(Wt/V) solution of Pontamine Sky Blue in physiological saline was intravenously injected and 10 minutes thereafter 0.1 ml/10 g of a 0.7%(V/V) solution of acetic acid in physiological saline was injected intraperitoneally. After 30 minutes, the mice were killed by suffocation with chloroform. After immediate laparotomy, the dye leaked into the peritoneal cavity was washed out with distilled water. The washings were made up with water to 30 ml and the absorbance at 620 mμ was measured. The amount of leaked dye per 20 g of mouse weight was compared.

[6] = system: threshold value of pain due to pressure stimuli (tail); details: for Analgesic effect: 100% = threshold raised by 160 g; for ED50: Mus musculus, po
[7] = system: fever (Mycobacterium butyricum); assay: Antipyretic action; format: in vivo, rat (Wistar strain, female); details: for ED1.0: po
Procedure: A suspension (0.6 mg/0.1 ml) of killed and dried Mycobacterium butyricum in liquid paraffin was subcutaneously injected in an amount of 0.1 ml into the subplantar region of the hind paw of each Wistar strain female rat weighing about 180 g. After 14 hours, the fevered rats were divided into groups, and each test compound was orally administered to each group to examine the antipyretic effect.

[8] = system: Vascular permeability; assay: Vascular permeability in rat (Whittle's method); format: in vivo, rat (Wistar strain, male); details: for ED30: po
Procedure: (ii) Vascular permeability in rat (Whittle's method)
The test compound was orally administered to each Wistar strain male rat (weighing about 150 g) which had been fasted overnight. After 55 minutes, 0.5 ml of a 0.5% Evans Blue solution was intravenously injected. Five minutes thereafter, 0.2 ml/100 g of a 3%(V/V) acetic acid solution was intraperitoneally injected. After 60 minutes from the injection of the acetic acid solution, the rats were killed by suffocation with chloroform. After immediate laparotomy, the dye leaked into the peritoneal cavity was washed out with physiological saline. The washings were made up with the saline to 30 ml and the absorbance at 640 mμ was measured to examine the effect of the test compounds by comparing the amounts of leaked dye per rat with one another.

[9] = system: pain threshold (brewer's yeast, hind paw); assay: Analgesic activity, Randall-Selitto method in rat; format: in vivo, rat (Wistar strain, male); details: for Inhibition: 100% = pain threshold raised by 150 g; for ED50: po
Procedure: (ii) Randall-Selitto method in rat
After one hour, the test compound was orally administered. One hour thereafter, the pain threshold value was measured four times at a time interval of one hour. The mean value of four values obtained was taken as the pain threshold value of each group of rats. The activity of the drug was assumed to be 100% when the pain threshold value was raised by 150 g.

[10] = system: Phenol Red (PSP) excretion; assay: Uricosuric action (a), inhibition of Phenol Red (PSP) excretion; format: in vivo, rabbit (male)
Procedure: (a) The action was examined by the method of B. B. Brodie et al. who reported that the inhibitory action on Phenol Red (PSP) excretion correlates with the uricosuric action [Proc. Soc. Exp. Biol. Med., 86, 884 (1954)]. To a male rabbit weighing 2 to 3 kg was intraperitoneally administered the test compound. After 30 minutes, 75 mg/kg of a Phenol Red suspension was injected into the pinna vein of the rabbit and 30 minutes thereafter a blood sample was drawn from the pinna vein. The blood sample was centrifuged and the serum was diluted with physiological saline. The diluted serum was treated with 0.1 N NaOH to develop the color. The concentration of Phenol Red in the serum was determined from the absorbance at 560 mμ.

[11] = Mus musculus, writhing, 5 mg/kg p.o.
[12] = Mus musculus, writhing, 10 mg/kg p.o.
[13] = Mus musculus, writhing, 20 mg/kg p.o.

Row | SMILES | LD50 [1] [mg/kg] | Frequency of writhing, mean ± S.E. ([2]; 5 mg/kg p.o.) | Frequency of writhing, mean ± S.E. ([2]; 10 mg/kg p.o.) | Frequency of writhing, mean ± S.E. ([2]; 20 mg/kg p.o.) | inhibition in vivo at 5 mg/kg [2, 11] [%] | inhibition in vivo at 10 mg/kg [2, 12] [%] | inhibition in vivo at 20 mg/kg [2, 13] [%] | Inhibitory percent of swelling [3] [%] | Dye leakage (P.S.B.) mean ± S.E. ([5]; 10 mg/kg p.o.) [μg/20g] | Dye leakage (P.S.B.) mean ± S.E. ([5]; 20 mg/kg p.o.) [μg/20g] | Inhibition ([5]; 5 mg/kg p.o.) [%] | Inhibition ([5]; 20 mg/kg p.o.) [%] | ED50 [6] [mg/kg] | Mean decrease in temp. ([7]; 0.2 mg/kg p.o.) [°C] | Mean decrease in temp. ([7]; 1 mg/kg p.o.) [°C] | Mean decrease in temp. ([7]; 5 mg/kg p.o.) [°C] | Inhibition ([8]; 1 mg/kg p.o.) [%] | Inhibition ([9]; 1 mg/kg p.o.) [%] | Inhibition ([9]; 5 mg/kg p.o.) [%] | Inhibition ([9]; 25 mg/kg p.o.) [%] | also measured
1 | Cc1ccsc1-c1ccc(C(C)C(=O)O)cc1 (racemic) [Racemic compound, dl-2-[4-(3-methyl-2-thienyl)phenyl]propionic acid] | 248 | 18.6 ± 4.5 | 11.8 ± 2.4 | 3.3 ± 0.9 | 21.2 | 50 | 86 | 14.4 | 211.0 ± 26.0 | 166.8 ± 13.8 | 18.3 | 48.0 | 7 | 0.52 | 1.20 | 1.70 | 27.6 | 44.3 | 45.2 | 66.9 | ED50 ([2]; mouse, read-out: ED50): 9.7 mg/kg; inhibition in vivo at 1 mg/kg ([4]; 1 mg/kg p.o., mean in 5 hours): 21.2%; inhibition in vivo at 5 mg/kg ([4]; 5 mg/kg p.o., mean in 5 hours): 48.5%; Dye leakage (P.S.B.) mean ± S.E. ([5]; 5 mg/kg p.o.): 262.0 ± 21.1 μg/20g; Inhibition ([5]; 10 mg/kg p.o.): 34.2%; ED30 ([5]; mouse, read-out: ED30): 8.5 mg/kg; Analgesic effect ([6]; 2.5 mg/kg p.o.): 33%; Analgesic effect ([6]; 10 mg/kg p.o.): 50%; Analgesic effect ([6]; 40 mg/kg p.o.): 85%; ED1.0 ([7]; rat, read-out: ED1.0): 0.66 mg/kg; Inhibition ([8]; 0.5 mg/kg p.o.): 20.1%; Inhibition ([8]; 5 mg/kg p.o.): 50.1%; ED30 ([8]; rat, read-out: ED30): 1.1 mg/kg; ED50 ([9]; rat, read-out: ED50): 6.1 mg/kg; Concentration of PSP in serum, mean ± S.E. ([10]; 10 mg/kg i.p.): 166.7 ± 25.1 µg/mL; Concentration of PSP in serum, mean ± S.E. ([10]; 20 mg/kg i.p.): 249.3 ± 41.4 µg/mL
2 | Cc1ccsc1-c1ccc(C(C)C(=O)O)cc1 (single isomer, unassigned; isomer d) [d-Isomer, d-2-[4-(3-methyl-2-thienyl)phenyl]propionic acid] | 230 | 14.5 ± 3.5 | 9.9 ± 2.6 | 5.4 ± 1.0 | 38.6 | 58.1 | 77.1 | 21.6 | 218.0 ± 14.3 | 160.4 ± 10.3 | 20.1 | 50.0 | 5.2 | 0.82 | 1.18 | 1.63 | 43.3 | 37.1 | 48.5 | 72.9 | ED50 ([2]; mouse, read-out: ED50): 7.5 mg/kg; inhibition in vivo at 1 mg/kg ([4]; 1 mg/kg p.o., mean in 5 hours): 40%; inhibition in vivo at 5 mg/kg ([4]; 5 mg/kg p.o., mean in 5 hours): 57.2%; Dye leakage (P.S.B.) mean ± S.E. ([5]; 5 mg/kg p.o.): 256.4 ± 15.9 μg/20g; Inhibition ([5]; 10 mg/kg p.o.): 32.0%; ED30 ([5]; mouse, read-out: ED30): 8.6 mg/kg; Analgesic effect ([6]; 2.5 mg/kg p.o.): 38%; Analgesic effect ([6]; 10 mg/kg p.o.): 61%; Analgesic effect ([6]; 40 mg/kg p.o.): 80%; ED1.0 ([7]; rat, read-out: ED1.0): 0.44 mg/kg; Inhibition ([8]; 0.2 mg/kg p.o.): 14.2%; Inhibition ([8]; 0.5 mg/kg p.o.): 28.1%; ED30 ([8]; rat, read-out: ED30): 0.52 mg/kg; ED50 ([9]; rat, read-out: ED50): 4.4 mg/kg; Concentration of PSP in serum, mean ± S.E. ([10]; 10 mg/kg i.p.): 223.8 ± 3.9 µg/mL; Concentration of PSP in serum, mean ± S.E. ([10]; 20 mg/kg i.p.): 267.3 ± 18.0 µg/mL
3 | O=C(O)Cc1ccccc1Nc1c(Cl)cccc1Cl [Diclofenac sodium] | – | 21.4 ± 3.0 | 16.2 ± 3.1 | 10.9 ± 1.7 | – | – | – | 10.9 | 227.0 ± 14.4 | 205.3 ± 10.1 | 5.4 | 36.0 | 9.5 | 0.88 | 1.63 | 1.57 | 5.4 | 22.7 | 49.7 | 74.9 | ED50 ([2]; Mus musculus): 17.7 mg/kg; inhibition in vivo at 5 mg/kg ([2]; Mus musculus): 9.3%; inhibition in vivo at 20 mg/kg ([2]; Mus musculus): 53.8%; inhibition in vivo at 1 mg/kg ([4]; 5 h): 6.4%; inhibition in vivo at 5 mg/kg ([4]; 5 h): 39.8%; ED30 ([5]; Mus musculus): 14 mg/kg; Analgesic effect ([6]; 5 mg/kg p.o.): 31%; Analgesic effect ([6]; 20 mg/kg p.o.): 71%; ED1.0 ([7]; Rattus norvegicus): 0.25 mg/kg; Inhibition ([8]; 5 mg/kg p.o.): 30.2%; ED30 ([8]; Rattus norvegicus): 4.8 mg/kg; ED50 ([9]; Rattus norvegicus): 5.3 mg/kg

From US4230719A, “Novel 2-[4-(3-methyl-2-thienyl)phenyl]propionic acid and pharmaceutically acceptable salt thereof and method for treating symptoms of inflammation and pain” (Toyama Chemical Co., Ltd., priority 1977, dated 1980)
